Several values for one entry are separate records, joined by “and”; a condition that tells them apart may be missing. Equal values may be shown once. Entries after “also recorded” stand apart in the source; their conditions may differ. Read-outs that look alike come from different tables or passages of the source.
Legend:
Caco-2 cells = experiment: Overall in vitro bioavailability: basolateral amount in Caco-2 cells relative to the initial amount in the test meal before in vitro digestion; assay type: in vitro ADME, human; conditions: mean ± SD (n = 4)
Experimental: The in vitro digestion was carried out as previously described. […] The mixture was dispersed with Ultra-Turrax® (Ika) and artificial saliva (2.5 mL, pH 7) was added to the mixture. The sample was incubated for 10 min at 37 °C in a shaking incubator. […] Then, porcine pepsin (2 mL, 40 mg/mL in 0.1 M HCl) was added and the homogenate was incubated at 37 °C in a shaking incubator for 30 min simulating the gastric step. […] Samples were incubated in a shaking incubator at 37 °C for 30 min to complete the digestion process. The final mixture representing the digesta was centrifuged (2500 g for 1 h at 10 °C) to separate the aqueous fraction. […] The cytotoxicity on Caco-2 cells of the aqueous fractions from in vitro digestions was first assessed to determine the suitable dilution required before adding the aqueous fractions to the apical side of cell monolayers. […] To avoid any interference with DMEM or serum components, the aqueous fractions were diluted in HBSS. Caco-2 cells also received HBSS in both chambers 12 h before the experiments. At the beginning of each experiment, cells were rinsed twice with 1 mL of PBS. […] Cells were then rinsed twice with 1mL of PBS and scrapped in 0.5 mL of iced-cold PBS. All analyses were run in quadruplicate and samples were stored at −80 °C until further analysis. Results were expressed as means ± standard deviations. Differences between means were assessed using ANOVA followed by the post-hoc Tukey test for parametric data. […] Two parameters were assessed to express the bioavailability: a) the ratio between the mass of phenolic compounds recovered at the basolateral side and the initial mass added to the apical side, b) the ratio between the mass of phenolic compounds recovered at the basolateral side and the initial mass added to the meal.

[1] = parameters: method as in PMID 27355793; conditions: Tyr from olives; cited from earlier work
[2] = In vitro digestion model: bioaccessibility of alperujo phenolic compounds added to a test meal (percentage found in the aqueous phase of the digesta); assay type: in vitro ADME; conditions: for recovery: pig
Experimental: The in vitro digestion was carried out as previously described. […] The mixture was dispersed with Ultra-Turrax® (Ika) and artificial saliva (2.5 mL, pH 7) was added to the mixture. The sample was incubated for 10 min at 37 °C in a shaking incubator. The pH of the gastric medium was adjusted to 4.00 ± 0.02 with 1 M HCl. Then, porcine pepsin (2 mL, 40 mg/mL in 0.1 M HCl) was added and the homogenate was incubated at 37 °C in a shaking incubator for 30 min simulating the gastric step. The pH of the mixture was raised to 6.00 ± 0.02 with 0.9 M NaHCO3 and 13 mL of a mixture of porcine bile extract (39.08 mg/mL) and pancreatin (2.08 mg/mL) in 0.1 M trisodium citrate (pH 6) were added. Samples were incubated in a shaking incubator at 37 °C for 30 min to complete the digestion process. The final mixture representing the digesta was centrifuged (2500 g for 1 h at 10 °C) to separate the aqueous fraction. […] All analyses were run in quadruplicate. Aliquots from salivary, gastric, and duodenal steps were frozen at −80 °C until use. […] After centrifugation (3560 g for 10 min at 4 °C), the lower phase was collected. The solid bottom was re-extracted with 0.3 mL of ethanol and vortexed for 10 min. The second ethanol phase recovered was pooled to the previously collected phase, and then dried using a Speed-Vac®. The dried extracts were dissolved in 200 µL of water. Apical media were directly injected. […] All samples were stored at −80 °C before analysis. All samples were analyzed by UHPLC-DAD-MS using an Acquity UPLC® system that was linked to both a diode-array detector and a Bruker Daltonics HCT Ultra Ion Traps mass spectrometer equipped with an Electron Spray Ionization (ESI) source operating in negative ion mode. The separation was performed on an Acquity C18 BEH column (50 × 2.1 mm i.d., 1.7 µm) kept at 35 °C. The solvents were (A) water/formic acid (99.5/0.5) and (B) acetonitrile. […] Along the three steps of the gradient, the flow rate was 0.30, 0.35, and 0.40 mL/min. […] Chromatograms were acquired at 280 nm. The spectroscopic detection was performed in the range 200–800 nm with a resolution of 1.2 nm.

Caco-2 TC7 cells = experiment: Uptake and apical-to-basolateral transport by Caco-2 TC7 cell monolayers of diluted aqueous fractions from in vitro digestions; assay type: in vitro ADME, human; conditions: for Amount found in the cytosolic compartment of Caco-2 cells, percentage of the initial amount at the apical side: 6 h incubation; for Metabolism in the intestinal cells: Caco-2 cells, inferred from total recovery; for Recovery in the cytosolic compartment of the cells or in the basolateral media (crossing of Caco-2 monolayers, native form): 6-h incubation; for Decrease of amount in the apical media: 6-h incubation on cell monolayers; for FA at the basolateral side as percentage (CA equivalent) of the initial CA amount in the apical side: 6 h, FA is the CA metabolite
Experimental: (§1) Caco-2 TC7 cells were grown in DMEM supplemented with 16% (v/v) fetal bovine serum, 1% (v/v) non-essential amino-acids, and 1% (v/v) antibiotics (complete medium), as previously described. Cells were then seeded at a density of 15 000 cells/well, grown on transwell membrane (six-well plate, […] polycarbonate membrane; Becton Dickinson) and incubated in humidified atmosphere of 5% CO2 and 95% air at 37 °C during 21 days to obtain confluent and differentiated cell monolayers.
(§2) The cytotoxicity on Caco-2 cells of the aqueous fractions from in vitro digestions was first assessed to determine the suitable dilution required before adding the aqueous fractions to the apical side of cell monolayers. […] To avoid any interference with DMEM or serum components, the aqueous fractions were diluted in HBSS. Caco-2 cells also received HBSS in both chambers 12 h before the experiments. At the beginning of each experiment, cells were rinsed twice with 1 mL of PBS. Then, 1 mL of diluted aqueous fraction was added to the apical side and 2 mL of HBSS were added at the basolateral side. After an incubation period (2, 4, or 6 h) at 37 °C, both apical and basolateral media were harvested. Cells were then rinsed twice with 1mL of PBS and scrapped in 0.5 mL of iced-cold PBS. All analyses were run in quadruplicate and samples were stored at −80 °C until further analysis.
(§3) Gallic acid was chosen as internal standard as it was not present in the extract. Phenolic compounds were extracted from salivary, gastric and duodenal samples as follows: 0.3 mL of ethanol and 0.2 mL of n-hexane were added to 0.2 mL of sample and the mixture was stirred for 10 min using a vortex blender at maximal speed. After centrifugation (3560 g for 10 min at 4 °C), the lower phase was collected. The solid bottom was re-extracted with 0.3 mL of ethanol and vortexed for 10 min. The second ethanol phase recovered was pooled to the previously collected phase, and then dried using a Speed-Vac®. The dried extracts were dissolved in 200 µL of water. Apical media were directly injected. To concentrate them, basolateral media (1900 µL) were dried using a Speed-Vac®, and the dried residues were dissolved into 80 µL of water. All samples were stored at −80 °C before analysis.
(§4) Following the procedure by Gallardo et al. (2016), 50 µL of internal standard were added to harvested cells (in 500 µL PBS). Samples were then sonicated for 10 min at room temperature and centrifuged (10,000 g for 10 min at 4 °C). Supernatants were collected and evaporated to dryness. The dried residues were dissolved in 50 µL of water and stored at −80 °C before analysis.
(§5) All samples were analyzed by UHPLC-DAD-MS using an Acquity UPLC® system that was linked to both a diode-array detector and a Bruker Daltonics HCT Ultra Ion Traps mass spectrometer equipped with an Electron Spray Ionization (ESI) source operating in negative ion mode. The separation was performed on an Acquity C18 BEH column (50 × 2.1 mm i.d., 1.7 µm) kept at 35 °C. The solvents were (A) water/formic acid (99.5/0.5) and (B) acetonitrile. The proportions of solvent B used were: 0–10 min: 1–20%, 10–12 min: 20–30%, 12–14 min: 30–100%. Along the three steps of the gradient, the flow rate was 0.30, 0.35, and 0.40 mL/min. The injection volume was 1 μL for digestion and apical medium samples, and 10 µL for cells and basolateral samples. Chromatograms were acquired at 280 nm. The spectroscopic detection was performed in the range 200–800 nm with a resolution of 1.2 nm. The concentrations of phenolic compounds Tyr, CA, and p-Cm were estimated from calibration curves (peak area vs. concentration) with R² values greater than 0.99 [26].
(§6) Results were expressed as means ± standard deviations. Differences between means were assessed using ANOVA followed by the post-hoc Tukey test for parametric data. P values under 0.05 were considered to be significant. […]

[3] = as above; assay type: in vitro ADME, human; conditions: human; for recovery at 6 h: Caco-2, 6 h; for Basolateral amount as percentage of initial apical amount (Caco-2 transport): whether from alperujo or alperujo-CD, read-out: Bioavailability (basolateral amount compared with initial apical amount)
Experimental: as §1, §2, §3, §4, §5, §6

[4] = parameters: method as in PMID 21494673; conditions: cited from earlier work
[5] = pH 6, in vitro digestion with test meal, average of alperujo and alperujo-CD, mean ± SD, read-out: Bioaccessibility (recovery in the final aqueous phase at the duodenal step)
[6] = pH 6, in vitro digestion, relative to the initial quantity, read-out: Recovery in the digesta
[7] = from alperujo-CD, mean ± SD (n = 4), read-out: Bioavailability in Caco-2 cells (recovery on the basolateral side) as percentage of initial apical amount
[8] = from alperujo, mean ± SD (n = 4), read-out: Bioavailability in Caco-2 cells (recovery on the basolateral side) as percentage of initial apical amount
[9] = read-out: Total recovery in the three compartments (apical, basolateral, cells)

| Bioavailability in Caco-2 cells as percentage of initial amount in the test meal before in vitro digestion (bioaccessibility × absorption by Caco-2 cells) (Caco-2 cells; from alperujo-CD) | Bioavailability in Caco-2 cells as percentage of initial amount in the test meal before in vitro digestion (bioaccessibility × absorption by Caco-2 cells) (Caco-2 cells; from alperujo) | recovery [2, 5] | recovery [2, 6] | Amount found in the cytosolic compartment of Caco-2 cells, percentage of the initial amount at the apical side (Caco-2 TC7 cells; from alperujo) | Amount found in the cytosolic compartment of Caco-2 cells, percentage of the initial amount at the apical side (Caco-2 TC7 cells; from alperujo-CD) | Metabolism in the intestinal cells (Caco-2 TC7 cells) | recovery at 6 h [3, 7] | recovery at 6 h [3, 8] | recovery at 6 h [3, 9] | Basolateral amount as percentage of initial apical amount (Caco-2 transport) [3] | Decrease of amount in the apical media (Caco-2 TC7 cells; from alperujo) | Compound | Recovery in the cytosolic compartment of the cells or in the basolateral media (crossing of Caco-2 monolayers, native form) (Caco-2 TC7 cells) | also measured |
| --- | --- | --- | --- | --- | --- | --- | --- | --- | --- | --- | --- | --- | --- | --- |
| 16.8 ± 0.5 ^a % | 16.2 ± 0.6 ^a % | 83.7 ± 2.4% | ≥ 100% | 1.6 ± 0.1% | 1.4 ± 0.1% | no metabolism occurred | 25.2 ± 1.3% | ~22.9% | ~100% | > 20% |  | OCCc1ccc(O)cc1 [Tyr, tyrosol] |  | Bioavailability in Caco-2 cells as percentage of initial amount in the test meal before in vitro digestion (bioaccessibility × absorption by Caco-2 cells) (Caco-2 cells; from alperujo-CD, listed as tyrosol): 16.8 ± 0.5%; Bioavailability in Caco-2 cells as percentage of initial amount in the test meal before in vitro digestion (bioaccessibility × absorption by Caco-2 cells) (Caco-2 cells; from alperujo, listed as tyrosol): 16.2 ± 0.6%; Higher bioaccessibility of Tyr than HT [1]: 16% |
|  |  |  |  |  |  |  |  |  |  |  |  | O=C1C[C@@H](c2ccc(O)cc2)Oc2cc(O)cc(O)c21 [naringenin] |  | Improvement of absorption through the gut epithelium by hydroxypropyl-β-CD [4]: 11 fold |
|  |  | ~64.9% |  |  |  |  |  |  |  |  | ~18% | O=C(O)/C=C/c1ccc(O)c(O)c1 [CA, caffeic acid] | neither HT-Glc nor CA was recovered; also recorded: not recovered; also recorded: not found bioavailable in its native form | Recovery in the cytosolic compartment of the cells or in the basolateral media (crossing of Caco-2 monolayers, native form) (Caco-2 TC7 cells; listed as caffeic): did not cross Caco-2 cell monolayers |
| 37.2 ± 3.2 ^a % | 32.0 ± 3.2 ^a % | > 87.9% | ≥ 100% | 1.6 ± 0.1% | 1.8 ± 0.2% | no metabolism occurred | 48.7 ± 2% | 40.2 ± 4.1% | ~100% | > 40% |  | O=C(O)/C=C/c1ccc(O)cc1 [p-Cm, p-coumaric acid] |  | Bioavailability in Caco-2 cells as percentage of initial amount in the test meal before in vitro digestion (bioaccessibility × absorption by Caco-2 cells) (Caco-2 cells; from alperujo-CD, listed as p-coumaric acid): 37.2 ± 3.2%; Bioavailability in Caco-2 cells as percentage of initial amount in the test meal before in vitro digestion (bioaccessibility × absorption by Caco-2 cells) (Caco-2 cells; from alperujo, listed as p-coumaric acid): 32.0 ± 3.2%; Higher bioaccessibility of p-Cm than CA ([2]; in vitro digestion, final aqueous phase): 25%; Improvement of local absorption by β-CD (Caco-2 TC7 cells; alperujo-CD vs alperujo, p < 0.05): 8.5 ± 4.2% |
|  |  |  |  |  |  |  |  |  |  |  | about 10% | hydroxytyrosol-O-glucoside [HT-Glc] | neither HT-Glc nor CA was recovered; also recorded: no HT-Glc was recovered | Bioaccessibility (recovery in the final aqueous phase at the duodenal step) ([2]; in vitro digestion with test meal, average of alperujo and alperujo-CD, mean ± SD): 73.2 ± 4.5%; Recovery in the cytosolic compartment of the cells or in the basolateral media (crossing of Caco-2 monolayers, native form) (Caco-2 TC7 cells; listed as Hydroxytyrosol-O-glucoside): did not cross Caco-2 cell monolayers |
|  |  |  |  |  |  |  |  |  |  |  |  | COc1cc(/C=C/C(=O)O)ccc1O [FA, Ferulic acid] |  | Bioavailability of FA (CA metabolite) in Caco-2 cells as percentage of initial amount in the test meal before in vitro digestion (Caco-2 cells; from alperujo-CD): 10.0 ± 1.0 ^a %; Bioavailability of FA (CA metabolite) in Caco-2 cells as percentage of initial amount in the test meal before in vitro digestion (Caco-2 cells; from alperujo): 8.9 ± 0.5 ^a %; FA at the basolateral side as percentage (CA equivalent) of the initial CA amount in the apical side (Caco-2 TC7 cells; from alperujo-CD): 23.4 ± 2.2% and 23.4 ± 2.2 ^b %; FA at the basolateral side as percentage (CA equivalent) of the initial CA amount in the apical side (Caco-2 TC7 cells; from alperujo): 18.8 ± 1.0% and 18.8 ± 1.0 ^a %; Absorption efficiency of FA through cell monolayers, percentage of the initial CA amount (Caco-2 TC7 cells; alperujo and alperujo-CD): ~ 20% |
